Assays:
[1] = biological target: T1, ENPP3 (Homo sapiens, UniProt O14638); assay: ENPP3 Km ATP assay; type: biochemical; settings: ATP at Km
T1 sequence (O14638 1-875): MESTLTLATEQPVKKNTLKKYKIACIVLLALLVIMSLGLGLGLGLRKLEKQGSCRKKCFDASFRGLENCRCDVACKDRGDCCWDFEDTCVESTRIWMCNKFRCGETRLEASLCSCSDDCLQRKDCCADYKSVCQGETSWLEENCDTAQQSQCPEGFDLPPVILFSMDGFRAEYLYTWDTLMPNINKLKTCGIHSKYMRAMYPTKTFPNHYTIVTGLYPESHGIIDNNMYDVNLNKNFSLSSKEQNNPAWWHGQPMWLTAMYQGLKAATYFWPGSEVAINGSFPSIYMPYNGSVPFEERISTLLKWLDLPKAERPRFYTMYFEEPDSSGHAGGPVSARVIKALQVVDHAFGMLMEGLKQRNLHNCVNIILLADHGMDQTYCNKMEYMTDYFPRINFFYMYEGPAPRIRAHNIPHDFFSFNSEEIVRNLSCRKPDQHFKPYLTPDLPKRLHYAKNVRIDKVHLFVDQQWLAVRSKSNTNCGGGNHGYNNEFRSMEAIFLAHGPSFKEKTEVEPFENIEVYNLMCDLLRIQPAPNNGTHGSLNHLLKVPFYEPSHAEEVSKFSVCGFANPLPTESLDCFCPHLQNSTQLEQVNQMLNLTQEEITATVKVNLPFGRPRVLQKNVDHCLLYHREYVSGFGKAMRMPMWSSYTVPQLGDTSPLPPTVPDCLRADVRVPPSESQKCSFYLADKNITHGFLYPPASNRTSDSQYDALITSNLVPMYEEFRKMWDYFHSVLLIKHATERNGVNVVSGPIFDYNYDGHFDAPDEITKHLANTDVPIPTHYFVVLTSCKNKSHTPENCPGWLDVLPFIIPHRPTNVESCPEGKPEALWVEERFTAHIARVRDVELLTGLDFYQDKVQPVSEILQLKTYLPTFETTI

[2] = biological target: T2, human ENPP1 (Homo sapiens, UniProt P22413); assay: ENPP1 assay with ATP substrate (Transcreener AMP2/GMP2 TR-FRET); type: biochemical; settings: 1 hour at room temperature
T2 construct: made in house
T2 sequence (P22413 1-925): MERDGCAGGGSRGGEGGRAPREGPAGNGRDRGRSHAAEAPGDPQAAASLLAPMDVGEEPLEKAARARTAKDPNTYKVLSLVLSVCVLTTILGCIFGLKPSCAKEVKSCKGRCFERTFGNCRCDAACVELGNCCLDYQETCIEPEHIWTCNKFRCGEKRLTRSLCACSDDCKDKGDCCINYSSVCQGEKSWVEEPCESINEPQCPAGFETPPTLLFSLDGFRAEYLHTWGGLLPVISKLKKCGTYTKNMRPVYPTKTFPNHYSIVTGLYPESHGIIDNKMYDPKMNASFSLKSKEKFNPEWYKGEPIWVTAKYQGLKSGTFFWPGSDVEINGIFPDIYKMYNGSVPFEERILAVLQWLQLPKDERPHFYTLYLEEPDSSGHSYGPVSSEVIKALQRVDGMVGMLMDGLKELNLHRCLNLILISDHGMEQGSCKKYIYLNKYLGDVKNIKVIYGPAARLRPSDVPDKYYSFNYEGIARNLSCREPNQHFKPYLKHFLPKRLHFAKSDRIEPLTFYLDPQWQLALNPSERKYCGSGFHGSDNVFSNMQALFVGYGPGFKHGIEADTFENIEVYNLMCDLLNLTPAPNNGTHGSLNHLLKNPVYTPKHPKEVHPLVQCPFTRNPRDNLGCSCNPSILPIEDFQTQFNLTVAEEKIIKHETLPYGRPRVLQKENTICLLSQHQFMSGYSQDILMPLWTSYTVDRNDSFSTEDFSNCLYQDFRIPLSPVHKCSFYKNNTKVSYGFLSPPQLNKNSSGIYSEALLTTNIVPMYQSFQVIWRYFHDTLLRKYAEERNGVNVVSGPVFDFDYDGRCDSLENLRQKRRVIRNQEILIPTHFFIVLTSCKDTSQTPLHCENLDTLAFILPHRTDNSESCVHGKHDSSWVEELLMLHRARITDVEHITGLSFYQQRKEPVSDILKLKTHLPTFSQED
How it was run: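 Reaction ran 1 h at room temperature in pH 7.5 Tris with MgCl2, TCEP, Tween 20 and 1% DMSO. ATP was added as a 300 nM stock and enzyme as an 8.5 μM stock. After EDTA stop, AMP was read by TR-FRET tracer displacement. Percent inhibition used enzyme/no-enzyme controls; IC50 was fitted with a variable slope.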

Row | Compound | IC50 [1] [µM] | IC50 [2] [µM]
1 | CCn1ncc2c(NCc3ccc(S(N)(=O)=O)cc3)nc(OCCC(C)C)nc21 [Example 2.102, 4-((1-Ethyl-6-(3-methylbutoxy)-1H-pyrazolo[3,4-d]pyrimidin-4-yl)aminomethyl)-benzenesulfonamide] | 0.1 to 1 | < 0.1
2 | CSc1nc(NCc2ccc(S(N)(=O)=O)cc2)c2cnn(C)c2n1 [Example 2.107, 4-((1-Methyl-6-(methylsulfanyl)-1H-pyrazolo[3,4-d]pyrimidin-4-yl)aminomethyl)-benzenesulfonamide] | < 0.1 | < 0.1
3 | CCSc1nc(NCc2ccc(S(N)(=O)=O)cc2)c2cnn(C)c2n1 [Example 2.108, 4-((6-(Ethylsulfanyl)-1-methyl-1H-pyrazolo[3,4-d]pyrimidin-4-yl)aminomethyl)-benzenesulfonamide] | < 0.1 | < 0.1
4 | CCSc1nc(NCc2ccc(S(N)(=O)=O)cc2)c2cnn(CC)c2n1 [Example 2.109, 4-((1-Ethyl-6-(ethylsulfanyl)-1H-pyrazolo[3,4-d]pyrimidin-4-yl)aminomethyl)-benzenesulfonamide] | 0.1 to 1 | < 0.1
5 | CCSc1nc(NCc2ccc(S(N)(=O)=O)cc2)c2c(Br)nn(C)c2n1 [Example 2.110, 4-((3-Bromo-6-(ethylsulfanyl)-1-methyl-1H-pyrazolo[3,4-d]pyrimidin-4-yl)aminomethyl)-benzenesulfonamide] | < 0.1 | < 0.1
6 | CCCSc1nc(NCc2ccc(S(N)(=O)=O)cc2)c2cnn(C)c2n1 [Example 2.111, 4-((1-Methyl-6-(propylsulfanyl)-1H-pyrazolo[3,4-d]pyrimidin-4-yl)aminomethyl)-benzenesulfonamide] | 0.1 to 1 | < 0.1
7 | CCn1ncc2c(NCc3ccc(S(N)(=O)=O)cc3)ccnc21 [Example 2.122, 4-((1-Ethyl-1H-pyrazolo[3,4-b]pyridin-4-yl)aminomethyl)benzenesulfonamide] | 1 to 20 | < 0.1
8 | Cn1nc(-c2ccccn2)c2c(NCc3ccc(S(N)(=O)=O)cc3)nc(Cl)nc21 [Example 2.124, 4-((6-Chloro-1-methyl-3-(2-pyridyl)-1H-pyrazolo[3,4-d]pyrimidin-4-yl)aminomethyl)benzenesulfonamide] | 0.1 to 1 | 0.1 to 1
9 | Cc1nc(NCc2ccc(S(N)(=O)=O)cc2)c2c(C3=CCCC3)nn(C)c2n1 [Example 2.127, 4-((3-(1-Cyclopenten-1-yl)-1,6-dimethyl-1H-pyrazolo[3,4-d]pyrimidin-4-yl)aminomethyl)benzenesulfonamide] | 0.1 to 1 | 1 to 20
10 | Cn1nc(Br)c2c(NCc3ccc(S(N)(=O)=O)cc3)nc(N3CCCCC3)nc21 [Example 2.131, 4-((3-Bromo-1-methyl-6-piperidino-1H-pyrazolo[3,4-d]pyrimidin-4-yl)aminomethyl)benzenesulfonamide] | < 0.1 | 1 to 20
11 | Cn1nc(-c2ccccc2)c2c(NCc3ccc(S(N)(=O)=O)cc3)nc(N3CCCCC3)nc21 [Example 2.132, 4-((1-Methyl-3-phenyl-6-piperidino-1H-pyrazolo[3,4-d]pyrimidin-4-yl)aminomethyl)benzenesulfonamide] | 0.1 to 1 | < 0.1
12 | Cn1ncc2c(NCc3ccc(S(N)(=O)=O)cc3)nc(C(F)(F)F)nc21 [Example 2.133, 4-((1-Methyl-6-trifluoromethyl-1H-pyrazolo[3,4-d]pyrimidin-4-yl)aminomethyl)-benzenesulfonamide] | 1 to 20 | 1 to 20
13 | Cn1ncc2c(NCc3ccc(S(N)(=O)=O)cc3)cc(C3CC3)nc21 [Example 2.134, 4-((6-Cyclopropyl-1-methyl-1H-pyrazolo[3,4-b]pyridin-4-yl)aminomethyl)-benzenesulfonamide] | 1 to 20 | 1 to 20
14 | Cc1nc(NCc2ccc(S(N)(=O)=O)cc2)c2c(C3CCCC3)nn(C)c2n1 [Example 2.135, 4-((3-Cyclopentyl-1,6-dimethyl-1H-pyrazolo[3,4-d]pyrimidin-4-yl)aminomethyl)benzenesulfonamide] | 1 to 20 | 1 to 20
15 | CN(Cc1ccc(S(N)(=O)=O)cc1)c1ncnc2c1cnn2C [Example 2.136, 4-(N-methyl-N-(1-methyl-1H-pyrazolo[3,4-d]pyrimidin-4-yl)aminomethyl)-benzenesulfonamide] | 0.1 to 1 | 1 to 20
16 | Cn1ncc2c(OCc3ccc(S(N)(=O)=O)cc3)ncnc21 [Example 2.137, 4-((1-Methyl-1H-pyrazolo[3,4-d]pyrimidin-4-yl)oxymethyl)benzenesulfonamide] | 1 to 20 | 1 to 20
17 | CCNc1nc(NCc2ccc(S(N)(=O)=O)cn2)c2cnn(C)c2n1 [Example 2.139, 6-(((6-(Ethylamino)-1-methyl-1H-pyrazolo[3,4-d]pyrimidin-4-yl)amino)methyl)pyridine-3-sulfonamide] | 1 to 20 | 1 to 20
18 | Cn1ncc2c(NCc3ccc(S(N)(=O)=O)cc3F)nc(Cl)nc21 [Example 2.140, 4-(((6-Chloro-1-methyl-1H-pyrazolo[3,4-d]pyrimidin-4-yl)amino)methyl)-3-fluorobenzenesulfonamide] | 0.1 to 1 | 0.1 to 1
19 | CCNc1nc(NCc2ccc(S(N)(=O)=O)cc2F)c2cnn(C)c2n1 [Example 2.141, 4-(((6-(Ethylamino)-1-methyl-1H-pyrazolo[3,4-d]pyrimidin-4-yl)amino)methyl)-3-fluorobenzenesulfonamide] | 0.1 to 1 | 0.1 to 1
20 | Cn1ncc2c(NCc3ccc(S(N)(=O)=O)cn3)cc(Cl)nc21 [Example 2.142, 6-(((6-Chloro-1-methyl-1H-pyrazolo[3,4-b]pyridin-4-yl)amino)methyl)pyridine-3-sulfonamide] | 0.1 to 1 | < 0.1
21 | Cn1ncc2c(NCc3ccc(S(N)(=O)=O)cc3F)cc(Cl)nc21 [Example 2.143, 4-(((6-Chloro-1-methyl-1H-pyrazolo[3,4-b]pyridin-4-yl)amino)methyl)-3-fluorobenzenesulfonamide] | < 0.1 | < 0.1
22 | CCNc1cc(NCc2ccc(S(N)(=O)=O)cc2F)c2cnn(C)c2n1 [Example 2.144, 4-(((6-(Ethylamino)-1-methyl-1H-pyrazolo[3,4-b]pyridin-4-yl)amino)methyl)-3-fluorobenzenesulfonamide] | 0.1 to 1 | 0.1 to 1
23 | Cc1csc2c(N3CCC(NCc4ccccc4)CC3)ncnc12 [Example 3.0, N-Benzyl-1-(7-methylthieno[3,2-d]pyrimidin-4-yl)piperidin-4-amine] | > 20 | 0.1 to 1
24 | Cc1csc2c(N3CCC(NCCCc4ccncc4)CC3)ncnc12 [Example 3.1, 1-(7-Methylthieno[3,2-d]pyrimidin-4-yl)-N-(3-(pyridin-4-yl)propyl)piperidin-4-amine] | > 20 | 0.1 to 1
25 | Cc1csc2c(N3CCC(NCc4ccncc4)CC3)ncnc12 [Example 3.2, 1-(7-Methylthieno[3,2-d]pyrimidin-4-yl)-N-(pyridin-4-ylmethyl)piperidin-4-amine] | > 20 | 1 to 20

Reference: patent US12643910B2, “Substituted pyrazolo[3,4-b]pyridines as ectonucleotide pyrophosphatase/phosphodiesterase 1 (ENPP1) modulators” (SANFORD BURNHAM PREBYS MEDICAL DISCOVERY INSTITUTE, priority 2019, dated 2026)
